Measurements reported in patent US9440988B2, “Regulators of the hedgehog pathway, compositions and uses related thereto” (John Hopkins University School of Medicine, priority 1008, dated 2016).

Legend:
[1] = test system: P2A6 fibrosarcoma cells derived from Ptc−/− embryonic fibroblasts; test: Subcutaneous P2A6 fibrosarcoma tumors in female nude mice; assay type: in vivo, mouse
Experimental: Female nude mice were injected subcutaneously with 5 million P2A6 fibrosarcoma cells derived from Ptc−/− embryonic fibroblasts. Three weeks after injection, each mouse had developed a discrete subcutaneous tumor. Each tumor was measured and treatments were initiated on the same day. […] The mice were killed, and tumors were measured and dissected out for histopathologic analysis. Tumor volumes were calculated as the product of length x width. The samples were paraformaldehyde-fixed and paraffin-embedded, and slides were cut for hematoxylin and eosin staining and for immunohistochemistry with polyclonal antibodies against the proliferation marker Ki-67 (Novacastra NCL-Ki67p; assay performed according to manufacturer's directions).

[2] = test system: Shh pathway activity in Ptc1−/− cells
Text: Since β-galactosidase is expressed from the Ptc1 locus, its expression reflects the activity of the Shh pathway. A representative experiment is shown. […] Cultures of NIH-3T3 cells were transfected (in triplicate) with Gli-luciferase reporter, TK-Renilla luciferase control vector and Smo or SmoA1 expression vectors. Smo DNA was used at 50% w/w, and SmoA1 at 50%, 5%, and 0.5% w/w. […] Error bars indicate one standard deviation. The leftmost four bars, shown for comparison, are as in FIG. 2C. […] NIH-3T3 cells were transfected with Gli-luc reporter, TK-Renilla, Ptc1CTD and SmoA1 expression vectors (Ptc to Smo DNA ratio=9). […] A representative experiment is shown. […] NIH-3T3 cells were cotransfected with Gli-luc reporter, β-galactosidase transfection control, and a control vector or an expression vector encoding the indicated Smo-Renilla luciferase fusion protein. In the representative experiment shown, Shh pathway activity and Smo protein levels were measured as firefly and Renilla luciferase activities relative to β-galactosidase, respectively.
(§1) Relative reporter activity is normalized to maximum. […] Error bars in A and B indicate one standard deviation.
Mice lacking function of Ptc1 display widespread activation of targets of Shh signaling, including of the Ptc1 gene itself (L. V. Goodrich, L. Milenkovic, K. M. Higgins, M. P. Scott, Science 277, 1109 (1997)). As β-galactosidase is expressed under the control of the Ptc1 promoter in these cells, β-galactosidase expression can be used to assay the state of Shh pathway activity (FIG. 3A).

NIH-3T3 cells = conditions: data not shown
Hedgehog signaling = Hedgehog signaling assay in Drosophila c1-8 cells; assay type: cell-based; conditions: not shown
Text: Cellular responses to the Hh signal are controlled by two multi-pass transmembrane proteins, Smo and Ptc1, predicted to have seven and twelve transmembrane spans, respectively. Smo is related to the Frizzled family of Wnt receptors and more distantly to the secretin family of G protein-coupled receptors (M. R. Barnes, D. M. Duckworth, L. J. Beeley, Trends Pharmacol Sci 19, 399 (1998)).

p2PTC−/− cells = conditions: even at the highest doses used, 2 d
Text: as §1

## CC1=C2C[C@H]3[C@@H](CC=C4C[C@@H](O)CC[C@@]43C)[C@@H]2CC[C@]12O[C@@H]1C[C@H](C)CN[C@H]1[C@H]2C [Compound 1, cyclopamine]
[1]; compared with the tomatidine-treated control, FIG. 7
  differentiation status of tumors: greater degree of differentiation
[1]; nude mice, once daily intraperitoneal, four days, one mouse per treatment
  decrease of tumor size: 0.14%
[1]; tumors after four days of treatment, blinded pathologist
  Ki-67 proliferation rate: 16%
[2]
  β-galactosidase expression: significantly suppressed
NIH-3T3 cells
  concentration range in which toxic effects emerge: 10 to 40 µM
Hedgehog signaling
  sensitivity of Hedgehog signaling assay to the substance: resistant
p2PTC−/− cells
  Significant toxicity (microscopically visible cell death, or decrease in Cell Titer reading): not observed
